# Experimental data published in ChEMBL document CHEMBL4613296 (ACS Med Chem Lett, 2020).
# Active and inactive are the calls of the source. The rule behind the calls is not given here.
# Legend:
# [1] = biological target: Rhodesain (Trypanosoma brucei rhodesiense) (UniProt Q95PM0); assay: Inhibition of Trypanosoma brucei rhodesain using increasing concentration of Cbz-Phe-Arg-AMC as substrate incubated for 30 mins by fluorometric assay
# [2] = system: Trypanosoma brucei brucei; assay: Antitrypanosomal activity against blood stage form of Trypanosoma brucei brucei 449 incubated for 24 hrs by ATPlite assay; assay type: functional, organism-based; details: Trypanosoma brucei, 449, 24 h
# Rhodesain = Rhodesain (Trypanosoma brucei rhodesiense, UniProt Q95PM0); assay: Inhibition of Trypanosoma brucei rhodesain in presence of curcumin using Cbz-Phe-Arg-AMC as substrate incubated for 30 mins by fluorometric assay
# [3] = system: Trypanosoma brucei brucei; assay: Antitrypanosomal activity against blood stage form of Trypanosoma brucei brucei 449 in presence of curcumin incubated for 24 hrs by ATPlite assay; assay type: functional, organism-based; details: Trypanosoma brucei, 449, 24 h
# [4] = biological target: Rhodesain (Trypanosoma brucei rhodesiense) (UniProt Q95PM0); assay: Inhibition of Trypanosoma brucei rhodesain assessed as combinational index measured at fraction affected value of 0.10 in presence of curcumin using Cbz-Phe-Arg-AMC as substrate incubated for 30 mins by fluorescence based assay
# [5] = biological target: Rhodesain (Trypanosoma brucei rhodesiense) (UniProt Q95PM0); assay: Inhibition of Trypanosoma brucei rhodesain assessed as combinational index measured at fraction affected value of 0.20 in presence of curcumin using Cbz-Phe-Arg-AMC as substrate incubated for 30 mins by fluorescence based assay
# [6] = biological target: Rhodesain (Trypanosoma brucei rhodesiense) (UniProt Q95PM0); assay: Inhibition of Trypanosoma brucei rhodesain assessed as combinational index measured at fraction affected value of 0.30 in presence of curcumin using Cbz-Phe-Arg-AMC as substrate incubated for 30 mins by fluorescence based assay
# [7] = biological target: Rhodesain (Trypanosoma brucei rhodesiense) (UniProt Q95PM0); assay: Inhibition of Trypanosoma brucei rhodesain assessed as combinational index measured at fraction affected value of 0.40 in presence of curcumin using Cbz-Phe-Arg-AMC as substrate incubated for 30 mins by fluorescence based assay
# [8] = biological target: Rhodesain (Trypanosoma brucei rhodesiense) (UniProt Q95PM0); assay: Inhibition of Trypanosoma brucei rhodesain assessed as combinational index measured at fraction affected value of 0.50 in presence of curcumin using Cbz-Phe-Arg-AMC as substrate incubated for 30 mins by fluorescence based assay
# [9] = biological target: Rhodesain (Trypanosoma brucei rhodesiense) (UniProt Q95PM0); assay: Inhibition of Trypanosoma brucei rhodesain assessed as combinational index measured at fraction affected value of 0.60 in presence of curcumin using Cbz-Phe-Arg-AMC as substrate incubated for 30 mins by fluorescence based assay
# [10] = biological target: Rhodesain (Trypanosoma brucei rhodesiense) (UniProt Q95PM0); assay: Inhibition of Trypanosoma brucei rhodesain assessed as combinational index measured at fraction affected value of 0.70 in presence of curcumin using Cbz-Phe-Arg-AMC as substrate incubated for 30 mins by fluorescence based assay
# [11] = biological target: Rhodesain (Trypanosoma brucei rhodesiense) (UniProt Q95PM0); assay: Inhibition of Trypanosoma brucei rhodesain assessed as combinational index measured at fraction affected value of 0.80 in presence of curcumin using Cbz-Phe-Arg-AMC as substrate incubated for 30 mins by fluorescence based assay
# [12] = biological target: Rhodesain (Trypanosoma brucei rhodesiense) (UniProt Q95PM0); assay: Inhibition of Trypanosoma brucei rhodesain assessed as combinational index measured at fraction affected value of 0.90 in presence of curcumin using Cbz-Phe-Arg-AMC as substrate incubated for 30 mins by fluorescence based assay
# [13] = biological target: Rhodesain (Trypanosoma brucei rhodesiense) (UniProt Q95PM0); assay: Inhibition of Trypanosoma brucei rhodesain assessed as combinational index measured at fraction affected value of 0.99 in presence of curcumin using Cbz-Phe-Arg-AMC as substrate incubated for 30 mins by fluorescence based assay
# Sequence of Rhodesain (Trypanosoma brucei rhodesiense) (Q95PM0 1-450): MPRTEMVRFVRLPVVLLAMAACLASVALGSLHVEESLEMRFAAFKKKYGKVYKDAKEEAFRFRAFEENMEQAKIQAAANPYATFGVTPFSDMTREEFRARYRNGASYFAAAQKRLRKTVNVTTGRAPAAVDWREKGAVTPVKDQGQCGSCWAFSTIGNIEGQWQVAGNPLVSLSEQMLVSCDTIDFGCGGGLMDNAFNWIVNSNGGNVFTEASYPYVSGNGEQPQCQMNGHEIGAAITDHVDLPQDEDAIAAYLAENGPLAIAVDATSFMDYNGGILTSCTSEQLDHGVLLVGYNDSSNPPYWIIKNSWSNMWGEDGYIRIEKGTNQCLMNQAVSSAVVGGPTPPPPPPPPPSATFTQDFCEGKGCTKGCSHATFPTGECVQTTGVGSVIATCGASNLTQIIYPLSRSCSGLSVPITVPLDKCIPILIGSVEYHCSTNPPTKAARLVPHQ
# Sequence of Rhodesain (Q95PM0 whole entry): as the sequence (Q95PM0 1-450) above
inhibition [1],IC50 [2],IC50 (Rhodesain),IC50 [3],CI [4],CI [5],CI [6],CI [7],CI [8],CI [9],CI [10],CI [11],CI [12],CI [13],Compound
inactive,3.12 µM,–,–,–,–,–,–,–,–,–,–,–,–,COc1cc(/C=C/C(=O)CC(=O)/C=C/c2ccc(O)c(OC)c2)ccc1O [CURCUMIN]
Active,2.33 µM,3.05 µM,4.64 µM,1.32,1.16,1.07,1,0.941,0.886,0.83,0.768,0.686,0.453,CC(=O)/C=C/[C@H](CCc1ccccc1)NC(=O)[C@H](Cc1ccccc1)NC(=O)OCc1ccccc1
